The text below walks through data of patent US7335665B2, “Spirocyclic piperidines as MCH1 antagonists and uses thereof” (H - Lundbeck A/S, priority 2003, dated 2008).

What is called Ki is the equilibrium dissociation constant of an inhibitor or competing ligand from its target.

T1 sequence (P97639 whole entry): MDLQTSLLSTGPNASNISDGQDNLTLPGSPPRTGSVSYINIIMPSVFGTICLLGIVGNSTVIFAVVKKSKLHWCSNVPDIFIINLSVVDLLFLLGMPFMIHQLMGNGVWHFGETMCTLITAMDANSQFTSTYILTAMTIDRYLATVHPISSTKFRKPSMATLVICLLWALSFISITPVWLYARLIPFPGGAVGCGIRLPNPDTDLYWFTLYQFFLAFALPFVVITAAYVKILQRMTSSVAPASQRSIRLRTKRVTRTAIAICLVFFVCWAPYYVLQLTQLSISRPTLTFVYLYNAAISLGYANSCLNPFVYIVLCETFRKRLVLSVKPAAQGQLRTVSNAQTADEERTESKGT

One assay concerns the target T1, rat MCH1 receptor (Rattus norvegicus, UniProt P97639).
T1 construct: expressed in transfected cells; host or cells: Human embryonic kidney Peak rapid 293 cells (Peakr293), transient, calcium phosphate; membranes
Briefly: Radioligand binding assay at cloned rat MCH1 receptor ([3H]Compound A displacement). To be noted: KI, cloned rat MCH1, membranes of transfected Peakr293 cells, 0.08 nM [3H]Compound A, 25° C., 90 minutes. Here is the method:
For binding assays, pellets of transfected cells are suspended in ice-cold buffer (20 mM Tris.HCl, 5 mM EDTA, pH 7.4) and homogenized by sonication for 7 sec. The cell lysates are centrifuged at 200×g for 5 min at 4° C. The supernatants are then centrifuged at 40,000×g for 20 min at 4° C. The resulting pellets are washed once in the homogenization buffer and suspended in binding buffer (see methods for radioligand binding). Protein concentrations are determined by the method of Bradford (1976) using bovine serum albumin as the standard. Binding assays are usually performed immediately, however it is possible to prepare membranes in batch and store frozen in liquid nitrogen for future use.
Radioligand binding assays for the rat MCH1 receptor were carried out using plasmid pcDNA3.1-rMCH1-f (ATCC Patent Deposit Designation No. PTA-3505). Plasmid pcDNA3.1-rMCH1-f comprises the regulatory elements necessary for expression of DNA in a mammalian cell operatively linked to DNA encoding the rat MCH1 receptor so as to permit expression thereof. Plasmid pcDNA3.1-rMCH1-f was deposited on Jul. 5, 2001, with the American Type Culture Collection (ATCC), 12301 Parklawn Drive, Rockville, Md. 20852, U.S.A. under the provisions of the Budapest Treaty for the International Recognition of the Deposit of Microorganisms for the Purposes of Patent Procedure and was accorded ATCC Patent Deposit Designation No. PTA-3505.
Human embryonic kidney Peak rapid 293 cells (Peakr293 cells) were transiently transfected with DNA encoding the MCH1 receptor utilizing the calcium phosphate method and cell membranes were prepared as described above. Binding experiments with membranes from Peakr293 cells transfected with the rat MCH1 receptor were performed with 0.08 nM [^3H]Compound A (custom labeled by Amersham) (the synthesis of Compound A is described in detail below) using an incubation buffer consisting of 50 mM Tris pH 7.4, 10 mM MgCl2, 0.16 mM PMSF, 1 mM 1,10 phenantroline and 0.2% BSA. Binding was performed at 25° C. for 90 minutes. Incubations were terminated by rapid vacuum filtration over GF/C glass fiber filters, presoaked in 5% PEI using […] Tris pH 7.4 as wash buffer. In all experiments, nonspecific binding is defined using […] Compound A.
The compounds described above were assayed using cloned rat MCH1.
As for `S=C(NCCCCCN1CCC2(CCc3ccccc32)CC1)Nc1cccc2ccccc12` [Example 22, (NAPHTHYLAMINO)[(5-(SPIRO[INDANE-1,4′-PIPERIDINE]-10-YL)PENTYL)AMINO]METHANE-1-THIONE], the affinity corresponds to a Ki of 517 nM.

For the compound `O=C(NCCCCCCN1CCC2(CCc3ccccc32)CC1)c1ccc(F)c(F)c1` [Example 19, (3,4-DIFLUOROPHENYL)-N-(6-(SPIRO[INDANE-1,4′-PIPERIDINE]-10-YL)HEXYL)CARBOXAMIDE], the Ki was determined as 412 nM. Compound `Cc1ccc(C(C(=O)NCCCN2CCC3(CC2)C(=O)CCc2ccccc23)c2ccc(C)cc2)cc1` [Example 97, 2,2-BIS(4-METHYL)PHENYL)-N-[3-(2-OXOSPIRO[1,3,4-TRIHYDRONAPHTHALENE-1,4′-PIPERIDINE]-11-YL)PROPYL]ACETAMIDE] came in with a Ki of 428 nM.

`O=C(NCCCN1CCC2(CCc3ccccc32)CC1)c1ccc(Oc2cc(Cl)cc(Cl)c2)o1` [Example 17, [5-(3,5-DICHLOROPHENOXY)(2-FURYL)]-N-(3-(SPIRO[INDANE-1,4′-PIPERIDINE]-10-YL)PROPYL)CARBOXAMIDE]: the Ki was 935 nM.

The compound `CCCc1nn(-c2ccc(Cl)cc2)cc1C(=O)NCCCCCCN1CCC2(CCc3ccccc32)CC1` [Example 10, [1-(4-CHLOROPHENYL)-3-PROPYL)PYRAZOL-4-YL]-N-(6-(SPIRO[INDANE-1,4′-PIPERIDINE]-10-YL)HEXYL)CARBOXAMIDE] returned a Ki of 764 nM. `O=C(Cc1ccc(F)c(F)c1)NCCCN1CCC2(CC1)OCc1ccccc12` [Example 86, 2-(3,4-DIFLUOROPHENYL)-N-(3-(SPIRO[1,3-DIHYDROISOBENZOFURAN-1,4′-PIPERIDINE]-10-YL)PROPYL)ACETAMIDE] registered a Ki of 379 nM.

The same assay, now with this note: cloned rat MCH1, membranes of transfected Peakr293 cells, 0.08 nM [3H]Compound A, 25° C., 90 minutes; read-out: KI.
For `O=C(NCCCN1CCC2(C=Cc3ccccc32)CC1)C1(c2ccc(Cl)cc2)CC1` [Example 73, [(4-CHLOROPHENYL)CYCLOPROPYL]-N-(3-(SPIRO[INDENE-1,4′-PIPERIDINE]-10-YL)PROPYL)CARBOXAMIDE], the Ki stood at 239 nM. Turning to `O=S(=O)(NCCCCCN1CCC2(CCc3ccccc32)CC1)c1cccc(C(F)(F)F)c1` [Example 21, (5-(SPIRO[INDANE-1,4′-PIPERIDINE]-10-YL)PENTYL){[3-(TRIFLUORO-METHYL)PHENYL]SULFONYL}AMINE], the Ki came out at 992 nM. Same read-out and setting: as for `Cc1onc(-c2ccccc2Cl)c1C(=O)NCCCCN1CCC2(CCc3ccccc32)CC1` [Example 35, [3-(2-CHLOROPHENYL)-5-METHYLISOXAZOL-4-YL]-N-(4-(SPIRO[INDANE-1,4′-PIPERIDINE]-10-YL)BUTYL)CARBOXAMIDE], the figure is 825 nM; as for `O=C(NCCCN1CCC2(CCc3ccccc32)CC1)C1(c2ccc(F)cc2)CCCCC1` [Example 56, [1-(4-FLUOROPHENYL)CYCLOHEXYL]-N-(3-(SPIRO[INDANE-1,4′-PIPERIDINE]-10-YL)PROPYL)CARBOXAMIDE], 108 nM; as for `O=C(NCCCCCN1CCC2(CCc3ccccc32)CC1)c1cccnc1Oc1ccc(Cl)cc1` [Example 31, [2-(4-CHLOROPHENOXY)(3-PYRIDYL)]-N-(5-(SPIRO[INDANE-1,4′-PIPERIDINE]-10-YL)PENTYL)CARBOXAMIDE], 212 nM. On the same count and under the same terms, then `O=C(NCCCN1CCC2(CCc3ccccc32)CC1)c1cc(Cl)cc(Cl)c1` [Example 8, (3,5-DICHLOROPHENYL)-N-(3-(SPIRO[INDANE-1,4′-PIPERIDINE]-10-YL)PROPYL)CARBOXAMIDE], with 914 nM; and `CC(C(=O)NCCCN1CCC2(CC1)OCc1ccccc12)c1ccc(Cl)cc1` (stereo not drawn) [Example 83, 2-(4-CHLOROPHENYL)-N-(3-(SPIRO[1,3-DIHYDROISOBENZOFURAN-1,4′-PIPERIDINE]-10-YL)PROPYL)PROPANAMIDE], with 557 nM. `O=C(NCCCN1CCC2(CC1)OCc1ccc(F)cc12)C(c1ccccc1)c1ccccc1` [Example 101, N-[3-(5-FLUOROSPIRO[1,3-DIHYDROISOBENZOFURAN-3,4′-PIPERIDINE]-10-YL)PROPYL]-2,2-DIPHENYLACETAMIDE]: the Ki amounted to 5.8 nM. `Cc1ccc(C2(C(=O)NCCCN3CCC4(CC3)OCc3ccccc34)CCCC2)cc1` [Example 75, [(4-METHYL)PHENYL)CYCLOPENTYL]-N-(3-(SPIRO[1,3-DIHYDROISOBENZOFURAN-1,4′-PIPERIDINE]-10-YL)PROPYL)CARBOXAMIDE]: the Ki is 700 nM. Still for that read-out and setting: as for `O=C(NCCCCN1CCC2(CCc3ccccc32)CC1)C(c1ccccc1)c1ccccc1` [Example 4, 2,2-DIPHENYL-N-(4-(SPIRO[INDANE-1,4′-PIPERIDINE]-10-YL)BUTYL)ACETAMIDE], the figure is 214 nM; as for `Cc1ccc(C(C(=O)NCCCN2CCC3(C=Cc4ccccc43)CC2)c2ccc(C)cc2)cc1` [Example 62, 2,2-BIS(4-METHYL)PHENYL)-N-(3-(SPIRO[INDENE-1,4′-PIPERIDINE]-10-YL)PROPYL)ACETAMIDE], 26 nM; as for `O=C(NCCCN1CCC2(C=Cc3ccccc32)CC1)C1(c2ccc(F)cc2)CCCCC1` [Example 72, [(4-FLUOROPHENYL)CYCLOHEXYL]-N-(3-(SPIRO[INDENE-1,4′-PIPERIDINE]-10-YL)PROPYL)CARBOXAMIDE], 131 nM. Consider `O=C(NCCCN1CCC2(C=Cc3ccccc32)CC1)C(c1ccccc1)c1ccccc1` [Example 38, 2,2-DIPHENYL-N-(3-SPIRO[INDENE-1,4′-PIPERIDINE]-10-YLPROPYL)ACETAMIDE], for which the Ki is 6.5 nM.

Consider `CC(C(=O)NCCCN1CCC2(C=Cc3ccccc32)CC1)c1ccc(Cl)cc1` (stereo not drawn) [Example 66, 2-(4-CHLOROPHENYL)-N-(3-(SPIRO[INDENE-1,4′-PIPERIDINE]-10-YL)PROPYL)PROPANAMIDE], for which the Ki came out at 140 nM. For `O=C(NCCCCN1CCC2(CCc3ccccc32)CC1)Nc1ccc(-c2ccccc2)cc1` [Example 28, N-(4-PHENYL)PHENYL)[(4-(SPIRO[INDANE-1,4′-PIPERIDINE]-10-YL)BUTYL)AMINO]CARBOXAMIDE], the Ki was 549 nM.

Consider `Cc1ccc2c(c1)COC21CCN(CCCNC(=O)C(c2ccccc2)c2ccccc2)CC1` [Example 103, N-[3-(5-METHYLSPIRO[1,3-DIHYDROISOBENZOFURAN-1,4′-PIPERIDINE]-10-YL)PROPYL]-2,2-DIPHENYLACETAMIDE], for which the Ki was determined as 14.7 nM. The same measure, in the same setting: as for `O=C(NCCCN1CCC2(CC1)Cc1ccccc1C2=O)C(c1ccc(F)cc1)c1ccc(F)cc1` [Example 92, 2,2-BIS(4-FLUOROPHENYL)-N-[3-(1-OXOSPIRO[INDANE-2,4′-PIPERIDINE]-10-YL)PROPYL]ACETAMIDE], the figure is 61.6 nM.

With `O=C(NCCCCN1CCC2(CCc3ccccc32)CC1)c1cccnc1Oc1ccc(Cl)cc1` [Example 32, [2-(4-CHLOROPHENOXY)(3-PYRIDYL)]-N-(4-(SPIRO[INDANE-1,4′-PIPERIDINE]-10-YL)BUTYL)CARBOXAMIDE], the Ki was found to be 388 nM. Consider `Cc1ccc(C(C(=O)NCCCN2CCC3(CC2)OCc2ccccc23)c2ccc(C)cc2)cc1` [Example 78, 2,2-BIS(4-METHYL)PHENYL)-N-(3-(SPIRO[1,3-DIHYDROISOBENZOFURAN-1,4′-PIPERIDINE]-10-YL)PROPYL)ACETAMIDE], for which the Ki was determined as 19.7 nM. Same read-out and setting: then `O=C(NCCCCN1CCC2(CCc3ccccc32)CC1)c1ccc(F)c(F)c1` [Example 60, (3,4-DIFLUOROPHENYL)-N-(4-(SPIRO[INDANE-1,4′-PIPERIDINE]-10-YL)BUTYL)CARBOXAMIDE], with 42.3 nM; and `O=C(NCCCN1CCC2(C=Cc3ccccc32)CC1)C1(c2ccc(F)cc2)CCCC1` [Example 70, [(4-FLUOROPHENYL)CYCLOPENTYL]-N-(3-(SPIRO[INDENE-1,4′-PIPERIDINE]-10-YL)PROPYL)CARBOXAMIDE], with 203 nM.
